Experimental data: US6693073B2, “Pulmonary delivery of active agents” (Emisphere Technologies, Inc., priority 1998, dated 2004)
Where two headings read alike, the source gives them in different places. One block for each compound: values may come before it.

Tests used:
Solubility of carriers = format: physicochemical; conditions: water, thermodynamic from solid; clear solution, pH 6.85
[1] = Serum insulin after pulmonary instillation of insulin with carrier compound (Example 4); format: in vivo, rat; conditions: rats, spray instillation into airway; insulin 0.03 mg/kg with carrier compound 16 mg/kg
Procedure: Carrier compound B, carrier compound C sodium salt, and carrier compound D in Table 10 were tested as follows.
An endotracheal tube (spray instillator from Penn Century of Philadelphia, Pa.) with a syringe (Hamilton syringe) attached to the endotracheal tube was inserted using a fiber optic laryngoscope.

[2] = rat, in vivo
Procedure: Each rat was weighed and identified using an indelible marker and anesthetized by intraperitoneal injection of ketamine: Xylazine: Acepromazine cocktail, at 80 mg/kg, 10 mg/kg and 2.0 mg/kg, respectively and returned to its cage. The rat was transferred to the surgical bench and placed on a heating blanket thermostatically controlled via rectal probe, once deep anesthesia was achieved.
The right jugular vein of each rat was catheterized using silicone tubing and the patency of the catheter was confirmed by slowly flushing the cannula with 200 μl heparin saline and then withdrawing 100 μl of blood. The cannula was then cleared with 200 μl of heparinized saline solution.
An endotrachcal tube was inserted using a fiber optic laryngoscope. The syringe (Hamilton syringe) of the instillator was attached to the endotracheal tube and used to instill solution (100 μl) in the airways. The endotracheal tube was removed following administration, and the breathing rate was monitored throughout the remainder of the study.
Blood samples (500 μl) were withdrawn at 0, 10, 30, 60, 90, 120 and 180 min and the cannula flushed with approximately 200 μl of heparinized saline solution. The blood was collected in 1 ml tuberculin syringes (containing 100 μl heparin 20 μ/ml) placed directly into microcentrifuge tubes.
Blood samples were immediately centrifuged at 10 000 rpm for 4 min.
Average insulin plasma concentrations over time were subjected to standard compartmental and non-compartmental pharmacokinetic analysis.
Average concentrations of insulin were fitted to the following equation:
CPins=A(e^−ke 1+e^−ka 1) (Eq.1)
where A=D ka/Vd (ka−ke) is the concentration of drug in the body at time zero, ka is the first order absorption rate constant, ke is the first order elimination rate constant.
The area under the lung concentration-time curve (AUC0−1) was calculated by the trapezoidal rule. Interpolation to infinity was performed by dividing the last Cins measured by the first-order rate constant of the terminal phase. The total area under the curve was estimated by the summation of these two compounds.
The elimination half-life was calculated from 0.693/ke where ke is the slope of the terminal phase of the log of the concentration-time profile.
The non-compartment analysis for insulin plasma concentrations over time was performed using standard techniques. The time to peak CPins (Tmax) and peak CPins (Cmax) were determined from the non-fitted average plasma concentrations (CPins) versus-time profiles for the treatments. AUC was calculated by the trapezoidal rule. MRT was not calculated due to a lack of data following intravenous administration from which to calculate pharmacokinetic parameters.

plasma glucose = assay: Plasma glucose pharmacodynamics after lung spray-IT instillation to rats; format: in vivo, Sprague Dawley female rats
Procedure: Determination of fasting plasma glucose levels was performed using the Ektachem DT Slide (GLU) method. The analysis is based on the enzyme-catalyzed reaction of glucose with molecular oxygen, followed by a second reaction that produces a highly-colored red dye. The intensity of the color is proportional to the amount of glucose in the sample.
The percentage minimum plasma glucose concentration (%MPGC) and the time T to attain each %MPGC (T%MPGC) were determined from the average plasma glucose levels versus-time profiles for the treatments.
The area above the curve effect (AACE) was calculated as follows:
AACE=Total area−AUCE (Eq.2)
where AUCE represents the area under the curve effect calculated using the trapezoidal rule.
The percentage total reduction in plasma glucose from 0→t (%TRPG 0→t) was determined using the following equation:
%TRPG0→t=100(AACE/total area) (Eq.3)

[3] = lung spray-IT, insulin 0.01 mg/kg alone
[4] = lung spray-IT, insulin 0.05 mg/kg alone
[5] = spray-IT, porcine insulin 0.01 mg/kg, Table 3
[6] = spray-IT, porcine insulin 0.05 mg/kg, Table 3
[7] = spray-IT, porcine insulin 0.1 mg/kg, Table 3
[8] = spray-IT, porcine insulin 0.5 mg/kg, Table 3
[9] = spray-IT, porcine insulin 1.0 mg/kg, Table 3

solubility (Solubility of carriers): 200 mg/mL
Compound: CC(C(=O)[O-])c1ccc(NC(=O)c2ccccc2O)cc1.[Na+] (stereo not drawn) [Sodium Salt of Carrier B, Sodium 2-(4-(N-salicyloyl)aminophenyl)propionate]

melting point: 113 to 114 °C
Cmax (serum insulin) [1]: 58.8 ± 12.0 μU/ml
Compound: Cc1ccc(C(=O)NCCCCCCCC(=O)O)c(O)c1 [Carrier D, N-(4-methylsalicyloyl)-8-aminocaprylic acid]

Cmax (serum insulin) [1]: 22.5 ± 4.0 μU/ml
Compound: COc1cccc(C(=O)Nc2ccc(CCC(=O)[O-])cc2)c1OC.[Na+] [Carrier C sodium salt]

Cmax (serum insulin) [1]: 44.6 ± 10.0 μU/ml
Compound: CC(C(=O)O)c1ccc(NC(=O)c2ccccc2O)cc1 (stereo not drawn) [Carrier B, 2-(4-(N-salicyloyl)aminophenyl) propionic acid]

Compound: Porcine Insulin: Lyophilized porcine insulin 25.9 IU/mg (Emisphere Technologies)
half-life of decline in plasma concentrations [2]: 27.8 to 142.4 min
t½ (abs) ([2]; 0.001 mg/kg): 27.8 min
t½ (elim) ([2]; 0.001 mg/kg): 3.0 min
t½ (abs) ([2]; 0.005 mg/kg): 42.6 min
t½ (elim) ([2]; 0.005 mg/kg): 3.0 min
tmax ([2]; 0.01 mg/kg): 10 min
tmax ([2]; 0.05 mg/kg): 10 min
AUC ([2]; 0.1 mg/kg): 9517.5
tmax ([2]; 0.1 mg/kg): 10 min
AUC ([2]; 0.5 mg/kg): 60345
tmax ([2]; 0.5 mg/kg): 30 min
AUC ([2]; 1 mg/kg): 178143.5
tmax ([2]; 1 mg/kg): 30 min
relative bioavailability ([2]; sc): 12.46%
% MPGC (plasma glucose; [3]): 70.02%
% TRPG0-3 hr (plasma glucose; [3]): 10.5±1.5%
AACE0-t (plasma glucose; [3]): 1892 ± 989 mcU/min/ml
T % MPGC (plasma glucose; [3]): 180 min
% TRPG0-3 hr (plasma glucose; lung spray-IT, insulin 0.01 mg/kg alone, listed as Insulin alone): 10.5 ± 1.5%
% MPGC (plasma glucose; [4]): 35.7%
% TRPG0-3 hr (plasma glucose; [4]): 47±10%
AACE0-t (plasma glucose; [4]): 8497 ± 1716 mcU/min/ml
T % MPGC (plasma glucose; [4]): 120 min
% TRPG0-3 hr (plasma glucose; lung spray-IT, insulin 0.05 mg/kg alone, listed as Insulin alone): 47 ± 10%
% MPGC (plasma glucose; [5]): 70.2%
% TRPG0→3 hr (plasma glucose; [5]): 10.5 ± 1.5%
AACE0→t (plasma glucose; [5]): 1892 ± 989 μU · min/ml
T % MPGC (plasma glucose; [5]): 180
% TRPG0→3 hr (plasma glucose; spray-IT, porcine insulin 0.01 mg/kg, Table 3, listed as insulin): 10.5%
% MPGC (plasma glucose; [6]): 35.69%
% TRPG0→3 hr (plasma glucose; [6]): 47.2 ± 9.5%
AACE0→t (plasma glucose; [6]): 8497 ± 1716 μU · min/ml
T % MPGC (plasma glucose; [6]): 120
% MPGC (plasma glucose; [7]): 35.3%
% TRPG0→3 hr (plasma glucose; [7]): 50.5 ± 12.7%
AACE0→t (plasma glucose; [7]): 9102 ± 2295 μU · min/ml
T % MPGC (plasma glucose; [7]): 120
% MPGC (plasma glucose; [8]): 30.6%
% TRPG0→3 hr (plasma glucose; [8]): 54.5 ± 6.5%
AACE0→t (plasma glucose; [8]): 10205 ± 1173 μU · min/ml
T % MPGC (plasma glucose; [8]): 60
% MPGC (plasma glucose; [9]): 13.1%
% TRPG0→3 hr (plasma glucose; [9]): 73.7 ± 3.1%
AACE0→t (plasma glucose; [9]): 13266 ± 570 μU · min/ml
T % MPGC (plasma glucose; [9]): 120
% TRPG0→3 hr (plasma glucose; spray-IT, porcine insulin 1.0 mg/kg, Table 3, listed as insulin): 73.7%
